Test results taken from the supplement of paper PMC10307832.

Key:
Assay in all cases: relative viability (nuclei count vs DMSO), 5 days (fraction); higher = more cells survive
[1] = compound: C1=CC(=CC=C1NC(=S)NNC2=C(C=C(C=C2[N+](=O)[O-])C(F)(F)F)[N+](=O)[O-])F [Kobe2602] + CC(C)C[C@H](NC(=O)[C@H](Cc1ccccc1)NC(=O)c1cnccn1)B(O)O [Bortezomib] (partner 0.002 µM)
Summary of the method: (§1)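 Five library-drug doses in √10 steps were combined with a fixed anchor-drug dose, or a single drug was given alone, by pin tool to lung cancer cell lines in 1536-well plates the day after seeding. Nuclei were stained and counted after 5 days. Relative viability is the nuclei count in treated wells over that in vehicle wells, taken as the median of duplicate plates.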

[2] = compound: C1=CC(=CC=C1NC(=S)NNC2=C(C=C(C=C2[N+](=O)[O-])C(F)(F)F)[N+](=O)[O-])F [Kobe2602] + C[C@@H](Oc1cc(-c2cnn(C3CCNCC3)c2)cnc1N)c1c(Cl)ccc(F)c1Cl [Crizotinib] (partner 1 µM)
Summary of the method: as §1

[3] = compound: COc1cc2nccc(Oc3ccc(NC(=O)C4(C(=O)Nc5ccc(F)cc5)CC4)cc3)c2cc1OC [Cabozantinib] + Nc1ncn([C@H]2C[C@H](O)[C@@H](CO)O2)c(=O)n1 [Decitabine] (partner 2 µM)
Summary of the method: as §1

[4] = compound: O[C@@H](COc1cccc2ncccc12)CN1CCN([C@@H]2c3ccccc3[C@@H]3[C@H](c4ccccc42)C3(F)F)CC1 [Zosuquidar] + CCNC(=O)c1noc(-c2cc(C(C)C)c(O)cc2O)c1-c1ccc(CN2CCOCC2)cc1 [Luminespib] (partner 0.01 µM)
Summary of the method: as §1

Cell Line	relative viability ([1]; first compound 0.2 µM)	relative viability ([1]; first compound 0.6325 µM)	relative viability ([1]; first compound 2 µM)	relative viability ([1]; first compound 6.325 µM)	relative viability ([1]; first compound 20 µM)	relative viability ([2]; first compound 0.2 µM)	relative viability ([2]; first compound 0.6325 µM)	relative viability ([2]; first compound 2 µM)	relative viability ([2]; first compound 6.325 µM)	relative viability ([2]; first compound 20 µM)	relative viability ([3]; first compound 0.02 µM)	relative viability ([3]; first compound 0.06325 µM)	relative viability ([3]; first compound 0.2 µM)	relative viability ([3]; first compound 0.6325 µM)	relative viability ([3]; first compound 2 µM)	relative viability ([4]; first compound 0.01 µM)	relative viability ([4]; first compound 0.03162 µM)	relative viability ([4]; first compound 0.1 µM)	relative viability ([4]; first compound 0.3162 µM)	relative viability ([4]; first compound 1 µM)
NCI-H2405	1.05	0.999	0.936	0.968	0.999	0.853	0.916	0.827	0.91	0.786	0.725	0.788	0.77	0.752	0.764	0.671	0.687	0.589	0.654	0.824
NCI-H322M	1.23	1.23	1.28	1.2	1.21	0.81	0.95	0.995	0.893	0.867	0.701	0.719	0.675	0.798	0.744	0.754	0.886	0.664	0.862	0.727
NCI-H2085	1.07	1.08	0.99	1.07	1.11	0.843	0.823	0.904	0.855	0.723	0.583	0.549	0.58	0.626	0.642	0.425	0.526	0.531	0.44	0.471
RERF-LC-KJ	1.11	1.15	1.15	1.15	1.15	0.781	0.839	0.836	0.81	0.756	0.717	0.735	0.649	0.666	0.746	1.28	1.11	1.29	1.34	1.19
NCI-H1355	1.21	1.21	1.01	1.07	1.13	1.04	1.12	0.747	0.952	0.957	0.401	0.372	0.33	0.363	0.367	0.741	0.752	0.644	0.822	0.824
NCI-H1650	0.232	0.192	0.207	0.192	0.207	0.913	1.01	0.92	1.07	1.05	0.386	0.401	0.365	0.514	0.548	0.178	0.183	0.204	0.203	0.202
PC-14	0.814	0.848	0.818	0.837	0.859	0.886	0.927	0.838	1.02	0.912	0.237	0.203	–	0.219	0.249	0.129	–	0.135	0.135	0.124
NCI-H1755	1.04	0.971	0.895	0.96	1	0.842	0.851	0.821	0.83	0.884	0.729	0.73	0.757	0.717	0.742	0.335	0.729	0.564	0.358	0.471
NCI-H1651	0.924	0.961	0.956	0.94	1.01	0.908	0.887	0.978	0.847	0.859	0.465	0.743	0.565	0.616	0.599	0.897	0.973	0.655	0.862	0.792
NCI-H661	0.936	0.83	0.78	0.796	0.755	0.933	–	0.971	1.06	1.1	0.6	0.608	0.563	0.632	0.69	0.911	0.875	0.875	0.938	0.891
HCC-15	0.959	1.1	0.964	0.994	1.03	0.747	0.803	0.727	0.769	0.752	0.562	0.788	0.683	0.644	0.536	0.122	0.5	0.21	0.222	0.533
PC-3 [JPC-3]	0.905	0.812	0.766	0.871	0.795	0.933	1.02	0.946	0.925	0.974	0.782	0.886	–	0.872	0.797	0.697	0.647	0.647	0.658	0.75
HOP-62	0.875	1.15	0.508	0.75	0.818	0.803	0.9	0.961	0.873	0.962	0.241	0.214	0.22	0.225	0.181	0.878	0.947	0.914	0.99	0.896
NCI-H460	0.99	1.09	1.09	1.21	1.05	0.855	0.905	0.922	0.893	0.729	0.509	0.477	0.724	0.51	0.486	0.0346	0.0269	0.0352	0.0358	0.0277
NCI-H727	0.901	0.883	0.83	0.885	0.851	0.767	0.69	0.776	0.64	0.865	0.595	0.976	0.881	0.865	0.907	0.23	0.344	0.434	0.427	0.431
NCI-H838	0.748	0.924	0.99	0.749	0.725	0.777	0.964	0.759	0.909	0.83	0.485	0.479	0.435	0.469	0.438	0.329	0.328	0.28	0.304	0.284

Cell Line	relative viability ([1]; first compound 0.2 µM)	relative viability ([1]; first compound 0.6325 µM)	relative viability ([1]; first compound 2 µM)	relative viability ([1]; first compound 6.325 µM)	relative viability ([1]; first compound 20 µM)	relative viability ([2]; first compound 0.2 µM)	relative viability ([2]; first compound 0.6325 µM)	relative viability ([2]; first compound 2 µM)	relative viability ([2]; first compound 6.325 µM)	relative viability ([2]; first compound 20 µM)	relative viability ([3]; first compound 0.02 µM)	relative viability ([3]; first compound 0.06325 µM)	relative viability ([3]; first compound 0.2 µM)	relative viability ([3]; first compound 0.6325 µM)	relative viability ([3]; first compound 2 µM)	relative viability ([4]; first compound 0.01 µM)	relative viability ([4]; first compound 0.03162 µM)	relative viability ([4]; first compound 0.1 µM)	relative viability ([4]; first compound 0.3162 µM)	relative viability ([4]; first compound 1 µM)
NCI-H1734	1.06	0.963	0.872	1.01	0.952	0.71	0.652	0.604	0.599	0.735	0.545	0.53	0.523	0.508	0.53	0.222	0.251	0.182	0.187	0.184
EKVX	1.13	1.08	0.994	1.02	1.1	1.11	0.705	0.865	0.887	0.956	0.328	0.386	0.261	0.336	0.394	0.926	0.8	0.749	0.812	0.832
NCI-H647	0.911	1.22	0.889	0.882	0.938	1.2	1.24	0.887	1.07	1.03	0.383	0.534	0.441	0.433	0.391	0.116	0.165	0.181	0.142	0.177
LOU-NH91	0.518	0.454	0.469	0.478	0.527	0.736	0.763	0.745	0.707	0.77	0.798	0.825	0.654	0.791	0.802	0.331	0.317	–	0.343	0.355
COR-L23	0.88	1.04	0.914	1.07	0.92	0.656	0.573	0.647	0.745	0.7	0.449	0.371	0.445	0.441	0.419	0.619	0.631	0.747	0.777	0.776
NCI-H1437	0.595	0.48	0.562	0.392	0.451	0.862	0.918	0.902	0.91	0.9	0.64	0.567	0.58	0.576	0.558	1.1	1.14	1.05	1.13	1.11
EPLC-272H	1.03	1.01	0.778	0.866	0.873	0.772	0.905	0.967	0.899	0.914	0.37	0.395	0.33	0.377	0.336	0.39	0.362	0.514	0.361	0.266
ChaGo-K-1	1.04	1.09	0.788	1.06	0.946	1.16	1.2	1.14	1.13	0.935	0.551	0.52	0.549	0.534	0.547	0.714	0.625	0.652	0.578	0.512
NCI-H1666	0.919	0.728	–	0.737	0.867	0.919	1.01	–	1	0.746	0.649	0.754	0.712	0.711	0.752	0.966	0.978	0.945	1.01	1.08
NCI-H441	0.549	0.582	0.527	0.575	0.687	0.719	0.662	0.606	0.876	0.713	0.204	0.24	0.241	0.273	0.231	0.355	0.244	0.403	0.286	0.326
HCC-44	0.882	0.897	0.826	0.905	0.813	0.771	0.697	0.767	0.783	0.749	0.908	0.996	0.981	1	0.987	1.14	1.16	1.17	1.01	1.08
NCI-H23	1.01	1.11	0.973	0.998	1.09	0.5	0.604	0.392	0.499	0.619	–	0.348	0.337	0.303	0.327	0.206	0.223	0.223	0.222	0.266
SW 1573	1.21	0.967	1.06	0.945	1.18	0.788	0.879	0.736	0.863	0.912	0.476	0.573	0.519	0.536	0.416	0.281	0.287	0.287	0.275	0.355
LU99A	1.13	1.39	1.12	1.17	1.22	0.557	0.601	0.571	0.607	0.641	0.843	1.01	0.854	0.787	0.882	0.201	0.22	0.256	0.276	0.303
SK-LU-1	1.38	1.55	1.18	1.37	1.61	0.94	0.944	0.965	1.06	0.924	0.583	0.698	0.668	0.631	0.627	0.228	0.201	0.177	0.204	0.219
NCI-H2126	1.14	1.09	1.11	1.19	1.11	1.01	1.06	0.962	1.01	0.912	0.531	0.546	0.618	0.643	0.59	0.93	0.909	–	0.935	0.952
